Laboratory results reported in patent US20250319133A1, “METHODS FOR IMPROVING BONE HEALTH WITH BOVINE MILK EXOSOME-ENRICHED PRODUCTS AND VITAMIN K2” (ABBOTT LABORATORIES, priority 2022, published 2025).

Test system: MC3T3-E1 cells
Assay: Alizarin Red S (ARS) extracellular mineralization assay, calcium deposits
Type: cell-based, murine
Conditions: 12 days in differentiation medium, 1 μM vitamin K2 and/or 15 μg/ml bovine milk exosomes
Description: Alizarin Red S (ARS) assay is an anthraquinone dye used to visualize and evaluate extracellular calcium deposits in cell culture. In embodiments of the invention, mineralization activity of differentiated osteoblasts are evaluated through ARS assay. To begin the assay, MC3T3-E1 pre-osteoblast cells were grown in MEM (minimum essential medium) culture medium supplemented with 10% v/v FBS (fetal bovine serum), […], 100 units/ml penicillin and 0.1 mg/ml streptomycin in a 5% CO2 and an atmosphere with 95% humidity. For osteogenic differentiation, these pre-osteoblast cells were seeded in 24-well plates at a density of 3×10^4 cells/well in complete medium for 1 day. The medium was then replaced by MEM containing 10% v/v FBS, […], 100 units/ml penicillin, 0.1 mg/ml streptomycin, […], and 50 μg/ml L-ascorbic acid. Specifically, three groups of MC3T3-E1 pre-osteoblast cells were treated. Group 1 was treated with 1 μM vitamin K2. Group 2 was treated with 15 μg/ml bovine milk exosomes. Group 3 was treated with a combination of 1 μM vitamin K2 and 15 μg/ml bovine milk exosomes. Group 4 was included as an untreated control group. In addition to analyzing Runx2 and LC3 molecular markers in Example 2, cell Groups 1-3 as described in Example 2 were treated in the presence of a differentiation medium for 12 days. […]

CC(C)=CCC/C(C)=C/CC/C(C)=C/CC/C(C)=C/CC1=C(C)C(=O)c2ccccc2C1=O [vitamin K2]
calcium deposits (extracellular matrix mineralization), ARS micrographs: abundant calcium deposits
